Reference: US20200277404A1, “COMPOSITIONS AND METHODS FOR REGULATION OF IMMUNE CELL ACTIVATION AND PROLIFERATION” (MONELL CHEMICAL SENSES CENTER, priority 2017, published 2020)

Tested on: bitter receptors (T2Rs)
Test: Expression of bitter receptors (T2Rs) in Raw264.7 cells treated with LPS or DEX
Assay type: cell-based
Conditions: mouse monocyte/macrophage Raw264.7 cell line, FIG. 4
Experimental: The mouse monocyte/macrophage Raw264.7 cell line was also used to study T2Rs. Raw264.7 cells were treated with lipopolysaccharide (LPS) and dexamethasone (DEX).

In the case of lipopolysaccharide [LPS], the “expression levels of some bitter receptors (T2Rs)” value is reported as “strongly induced”.
